Read-outs that look alike come from different tables or passages of the source.
Tests used:
[1] = tested on: wildtype and FGF14 deficient mice; experiment: PTZ-induced seizure: latency to onset and time to death; assay type: in vivo, mouse; details: for time to death (mean duration): FGF14 (−/−) mice
Method: Time to onset of tonic-clonic seizure was recorded. In the first experiment (FIG. 9), the mean age was 82 days and the sex ratio was 50% male/female. In the second experiment, the mean age was 354 days and all animals were female.

[2] = tested on: wildtype and Fgf14^N-βGal/N-βGal mice; experiment: Locomotor activity response to stimulant drugs and dopamine receptor agonists; assay type: in vivo, mouse
Method: Locomotor activity. For the locomotor activity experiments, all mice were acclimated to the activity cages (28 cm long×17 cm wide×12.5 cm high) for one hour on two consecutive days. […] Mice were tested every other day and the order of drug treatment was counterbalanced across days within genotype groups. Locomotor activity was recorded every five minutes by two beams of red light placed at 10 and 19 cm along the length of the activity cage.
Statistical Analyses. The behavioral data were analyzed using analysis of variance (ANOVA) models typically containing one between-subjects variable (Genotype) and one within-subjects variable (e.g., Trials or Test Sessions). Subsequent one-way ANOVAs were used to evaluate main effects. Data from the experiments concerning drug effects on locomotor activity were analyzed by using a […] analysis of variance (ANOVA) with one between-subjects variable (Drug) being added to the above model. […] Alpha was set at p<0.05 for all analyses.

extracellular dopamine = details: cited from earlier work
[3] = tested on: Dopamine D1 receptor deficient mice; details: cited from earlier work
[4] = tested on: wildtype and Fgf14^N-βGal/N-βGal mice; experiment: Cocaine-induced seizure activity with EEG recording; assay type: in vivo, mouse
Method: Surgical implantation of skull screw electrodes was performed with the mice positioned in a stereotaxic frame under halothane anesthesia. Using sterile technique, the scalp was incised at the midline and the periosteum was scraped free from the skull. Three burr holes were made with a high speed drill for placement of epidural screw electrodes. Two active electrodes were placed over the right and left frontal cortex approximately 1 mm posterior to the bregma. A reference electrode was implanted in the region over the frontal sinus. The electrodes and lead wires were stabilized to the skull with dental cement. The mice were allowed a three-day recovery period before recording. Reference EEG recordings from the right and left frontal regions were performed using a Grass P5 Series AC amplifier with high and low frequency filter settings at 100 and 1 Hz, respectively. The outputs of the amplifiers were digitized and stored using an analog-to-digital converter and Axoscope software.

[5] = Fgf14^N-βGal/N-βGal mice, 40 mg/kg

C1CCc2nnnn2CC1 [PTZ, pentylenetetrazol]
time to death (mean duration) ([1]; Experiment 1, 100 mg/kg IP, average age 82 days): about 4200 seconds
time to death (mean duration) ([1]; Experiment 2, 75 mg/kg IP, average age 354 days): ~5700 s
time to death after seizure onset ([1]; wild type mice): 15 to 20 s

Oc1cc2c(cc1O)C(c1ccccc1)CNCC2 (stereo not shown) [SKF38393]
reduction in the locomotor activity induced by the D1R agonist ([2]; Fgf14^N-βGal/N-βGal mice compared to wildtype): 30%

CC(N)Cc1ccccc1 (stereo not shown) [amphetamine]
hyperactivity response relative to wildtype littermates ([2]; Fgf14^N-βGal/N-βGal mice, 2 and 4 mg/kg subcutaneous): significantly lower
elevation of DA efflux above baseline (extracellular dopamine; 2 mg/kg): 350%
elevation of DA efflux above baseline (extracellular dopamine; 4 mg/kg): 750%
locomotor response ([3]; 2 mg/kg): non-responsive
locomotor response ([3]; 5 mg/kg): decreased response

COC(=O)[C@H]1[C@@H](OC(=O)c2ccccc2)C[C@@H]2CC[C@H]1N2C [cocaine]
EEG recording [4, 5]: epileptiform activity
induction of seizures (behaviour) [4, 5]: brief tonic movements
induction of seizures ([4]; both wildtype and FGF14 deficient mice, 80 mg/kg): tonic-clonic seizures
induction of seizures ([4]; wildtype mice, 40 mg/kg): did not induce seizures
